Data reported in patent US5571816A, “Pyrimidines” (Hoechst Aktiengesellschaft, priority 1992, dated 1996).
Structures can show the parent of a compound that is named as a salt. Where two headings read alike, the source gives them in different places. Each block holds one compound with its values, some of them ahead of it.

Tests used:
[1] = Solubility in water of salts (and free bases); assay type: physicochemical; details: Table 2, salts of compounds I, temp. by No. [°C]: 1 25.5, 2 23.0, 3 22.4, 4 22.4, 5 22.0, 6 25.0, 7 25.5, 8 25.5, 9 25.5, 10 23.5, 11 23.5, 12 25.0, 13 24.0, 14 23.0, 15 22.0, 16 24.5, 17 22.5, 18 22.0; for solubility: water, read-out: Solubility in water, Concentration in % by wt.
serum lipoproteins = experiment: Effect on serum lipoproteins of normolipemic male rats in a subchronic experiment; assay type: in vivo; details: Rattus norvegicus, po, by stomach tube, 7 administrations; for change in vivo at 10 mg/kg: 10 mg/kg/day; for change in vivo at 30 mg/kg: 30 mg/kg/day; for change in vivo at 3 mg/kg: 3 mg/kg/day; for change in vivo at 1 mg/kg: 1 mg/kg/day
Procedure, shortened: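 Male HOE: WISKf rats (>180 g, 10/group) dosed orally by stomach tube once daily for 7 days in 1% aqueous Tylose; fasted 24 h and bled 24 h after last dose. Pooled serum ultracentrifuged into VLDL (d<1.006) and LDL (d 1.006–1.04); cholesterol and triglycerides measured enzymatically, protein by Lowry.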

LDL receptor mRNA [2] = experiment: Stimulation of LDL receptor mRNA expression in rat livers (Northern blot); assay type: in vivo; details: rat liver, 30 mg/kg, 6 hours after administration; untreated control = 100%
Description: 1b. The LDL receptor mRNA levels are also raised in rat livers by compounds of the formula I within a few hours (Table II).
(§1) The mRNA was prepared by the method described by Chomczynski, P. and Sacchi, N., in Anal. Biochem. 162, 156-159 (1987). In the case of organs (such as, for example, liver), the deep-frozen tissue was previously homogenized on dry ice in a mortar, and the mRNA was further concentrated by means of oligo dT by standard methods (cf. Sambrook, J., Fritsch, E. F. and Maniatis, T., Molecular Cloning, second edition, Cold Spring Harbor (1989); this collection of methods also includes descriptions of all the other relevant standard processes of molecular biology used here). 5 to […] of the dissolved mRNA obtained in this way were denatured by standard processes and fractionated on 1% horizontal agarose gels. The mRNA was transferred by capillary blotting to Hybond N membranes (Amersham). Used as specific hybridization probe was a partial LDL receptor cDNA clone and as internal standard was a plasmid which contained a β-actin gene. Both plasmids were labeled using a random primer kit from Amersham to a specific activity of 5×10^9 cpm/μg. Prehybridization, hybridization and washing of the filters took place by standard processes. The filters were subsequently exposed on Cronex 4 films (Dupont) in the presence of an intensifying screen at -70° C. overnight or for up to 14 days, and the hybridization signals were quantified from the intensity of blackening of the film using a commercially available laser densitometer. Subsequently, the quotient of the intensity of the LDL receptor band and of the actin band was determined as internal standard to correct for variations in yield.
Liver tissue was removed and shock-frozen in liquid nitrogen.
Subsequently, the mRNA was isolated as described and, by means of the Northern blot technique, the relative LDL receptor mRNA levels were determined. The mRNA level of untreated control animals was set equal to 100%, and the stimulation of the LDL receptor mRNA was calculated as a percentage of the […]

LDL receptor mRNA [3] = experiment: Stimulation of LDL receptor mRNA expression in HepG2 cells (Northern blot); assay type: cell-based; details: Homo sapiens; HepG2, 2 × 10^-6 M, 16 h; control = 100%; ratio to β-actin mRNA
Description: 1a. In the human hepatocytoma cell line HepG2, which is recognized everywhere as model, the LDL receptor mRNA levels are increased by the compounds of the formula I (Table I).
as §1
The HepG2 cells were incubated in RPMI 1640 standard medium with fetal calf serum (final concentration 10%). Serum-free RPMI medium was used as induction control. Subsequently, the complete mRNA was prepared and, by means of the Northern blot technique, the relevant LDL receptor mRNA and β-actin mRNA levels were determined. The quotient of the LDL receptor mRNA signal and of the β-actin mRNA signal of the control (without added substance) was set equal to 100%, and the stimulation above this of the LDL receptor mRNA levels achieved under the influence of the compounds was expressed as percentage of the control.

[4] = read-out: Serum LDL cholesterol, % change from control at end of treatment
[5] = read-out: Serum LDL protein, % change from control at end of treatment
[6] = read-out: Serum VLDL cholesterol, % change from control at end of treatment
[7] = read-out: Serum VLDL protein, % change from control at end of treatment
[8] = read-out: Serum VLDL triglycerides, % change from control at end of treatment

1 part by mass dissolves in ... parts by H2O [1]: 22.8 parts by H2 O
solubility [1]: 42 mg/mL
SMILES: CCCN(C(=O)c1cnc(N2CC(C)(C)NC2=O)nc1N)c1cccc(C(F)(F)F)c1 [Example 33]
change in vivo at 10 mg/kg (serum lipoproteins; [4]): -47%
change in vivo at 10 mg/kg (serum lipoproteins; [5]): -33%
change in vivo at 10 mg/kg (serum lipoproteins; [6]): 48%
change in vivo at 10 mg/kg (serum lipoproteins; [7]): -29%
change in vivo at 10 mg/kg (serum lipoproteins; [8]): -73%
change in vivo at 30 mg/kg (serum lipoproteins; [4]): -67%
change in vivo at 30 mg/kg (serum lipoproteins; [5]): 44%
change in vivo at 30 mg/kg (serum lipoproteins; [6]): -95%
change in vivo at 30 mg/kg (serum lipoproteins; [7]): -33%
change in vivo at 30 mg/kg (serum lipoproteins; [8]): -100%
LDL receptor mRNA (LDL receptor mRNA [2]): 350%
activity at 2 µM (LDL receptor mRNA [3]): 205%

1 part by mass dissolves in ... parts by H2O [1]: 12.1 parts by H2 O
solubility [1]: 76.6 mg/mL
SMILES: C=CCN(C(=O)c1cnc(N2CC(C)(C)NC2=O)nc1N)c1cccc(C(F)(F)F)c1 [Example 40]
change in vivo at 3 mg/kg (serum lipoproteins; [4]): -22%
change in vivo at 3 mg/kg (serum lipoproteins; [5]): -18%
change in vivo at 3 mg/kg (serum lipoproteins; [6]): -19%
change in vivo at 3 mg/kg (serum lipoproteins; [7]): -11%
change in vivo at 10 mg/kg (serum lipoproteins; [4]): -53%
change in vivo at 10 mg/kg (serum lipoproteins; [5]): -38%
change in vivo at 10 mg/kg (serum lipoproteins; [6]): -40%
change in vivo at 10 mg/kg (serum lipoproteins; [7]): -41%
change in vivo at 10 mg/kg (serum lipoproteins; [8]): -2%
change in vivo at 30 mg/kg (serum lipoproteins; [4]): -58%
change in vivo at 30 mg/kg (serum lipoproteins; [5]): -52%
change in vivo at 30 mg/kg (serum lipoproteins; [6]): -57%
change in vivo at 30 mg/kg (serum lipoproteins; [7]): -52%
change in vivo at 30 mg/kg (serum lipoproteins; [8]): -41%
LDL receptor mRNA (LDL receptor mRNA [2]): 340%
activity at 2 µM (LDL receptor mRNA [3]): 180%

SMILES: CCN(C(=O)c1cnc(N2CC(C)(C)NC2=O)nc1N)c1cccc(C(F)(F)F)c1 [Example 2, 4-amino-2-(4,4-dimethyl-2-oxo-1-imidazolidinyl)pyrimidine-5-carboxylic acid N-ethyl-N-(3-trifluoromethylphenyl)amide hydrochloride]
change in vivo at 1 mg/kg (serum lipoproteins; [4]): -28%
change in vivo at 1 mg/kg (serum lipoproteins; [5]): -44%
change in vivo at 1 mg/kg (serum lipoproteins; [6]): -22%
change in vivo at 3 mg/kg (serum lipoproteins; [4]): 40%
change in vivo at 3 mg/kg (serum lipoproteins; [5]): -28%
change in vivo at 3 mg/kg (serum lipoproteins; [6]): -30%
change in vivo at 3 mg/kg (serum lipoproteins; [7]): -7%
change in vivo at 3 mg/kg (serum lipoproteins; [8]): 40%
change in vivo at 10 mg/kg (serum lipoproteins; [4]): -32%
change in vivo at 10 mg/kg (serum lipoproteins; [5]): -28%
change in vivo at 10 mg/kg (serum lipoproteins; [6]): -41%
change in vivo at 10 mg/kg (serum lipoproteins; [7]): -28%
change in vivo at 10 mg/kg (serum lipoproteins; [8]): -26%
change in vivo at 30 mg/kg (serum lipoproteins; [4]): -75%
change in vivo at 30 mg/kg (serum lipoproteins; [5]): -73%
change in vivo at 30 mg/kg (serum lipoproteins; [6]): -96%
change in vivo at 30 mg/kg (serum lipoproteins; [7]): 40%
change in vivo at 30 mg/kg (serum lipoproteins; [8]): -81%
LDL receptor mRNA (LDL receptor mRNA [2]): 300%
activity at 2 µM (LDL receptor mRNA [3]): 175%
